Like-named read-outs stand apart in the source and are kept apart here.
Tests used:
[1] = Dynamic light scattering; type: physicochemical
Method: Stock solutions of bolalipids were prepared by dispersing the powder in ultrapure water, then stirring vigorously by vortexing, and sonicating in a 40°C bath sonicator for 20 min. The concentration of each stock solution corresponds to the highest solubility achieved in water for each bolalipid, using the method described above. DLS experiments were performed on a Malvern Zetasizer Nano (Malvern Instruments, Worcestershire, UK) in back-scattering mode at 20°C. There were three independent measurements of each sample and 12 runs for each measurement, with 10 s taken for each run. The attenuator index and measurement position were automatically adjusted. Fifty microliters of each sample was transferred into polystyrene semi-microcuvettes for determination of UV and visible wavelengths (Sarstedt).

[2] = tested on: C. glabrata 8018; experiment: Broth microdilution MIC; type: cell-based; conditions: C. glabrata 8018
[3] = tested on: Pseudomonas aeruginosa PAO1; experiment: Broth microdilution MIC; type: cell-based
[4] = tested on: VR Enterococcus faecium NCTC 12204; experiment: Broth microdilution MIC; type: cell-based; conditions: VR Enterococcus faecium NCTC 12204
[5] = tested on: C. albicans 3281; experiment: Broth microdilution MIC; type: cell-based, Candida albicans; conditions: C. albicans 3281
[6] = tested on: C. parapsilosis; experiment: Broth microdilution MIC; type: cell-based
[7] = tested on: M. tuberculosis Bleupan; experiment: microbe, parasite or virus in culture; type: cell-based, Mycobacterium tuberculosis
[8] = tested on: HeLa; experiment: In vitro toxicity for cell line; type: cell-based, human; conditions: average ± standard error from 3 independent repeats
Text: (§1) TABLE 2 Toxicity of bolaamphiphiles for two cell lines^a | column: Toxicity (EC50 [μg/ml]) of: / 12-bis-THA Cl2; Toxicity (EC50 [μg/ml]) of: / Dequalinium; Toxicity (EC50 [μg/ml]) of: / Quino-bola; Toxicity (EC50 [μg/ml]) of: / Penta-bola; Toxicity (EC50 [μg/ml]) of: / Hepta-bola; Toxicity (EC50 [μg/ml]) of: / Octa-bola; Toxicity (EC50 [μg/ml]) of: / Octa-C10; Toxicity (EC50 [μg/ml]) of: / Octa-C8; Toxicity (EC50 [μg/ml]) of: / Octa-C6

[9] = tested on: HEK293; experiment: In vitro toxicity for cell line; type: cell-based, human; conditions: HEK293; average ± standard error from 3 independent repeats
Text: as §1

[10] = tested on: Pseudomonas aeruginosa NCTC 13437; experiment: Broth microdilution MIC; type: cell-based
[11] = tested on: C. tropicalis 8760; experiment: Broth microdilution MIC; type: cell-based; conditions: C. tropicalis 8760
[12] = tested on: EMR Staphylococcus aureus 15 NCTC 13616; experiment: Broth microdilution MIC; type: cell-based; conditions: EMR Staphylococcus aureus 15 NCTC 13616
[13] = tested on: C. albicans 3179; experiment: Broth microdilution MIC; type: cell-based, Candida albicans; conditions: C. albicans 3179
[14] = tested on: M. tuberculosis Bleupan; type: in vivo, Galleria mellonella
[15] = tested on: VS Enterococcus faecalis NCTC 775; experiment: Broth microdilution MIC; type: cell-based
[16] = tested on: Acinetobacter baumannii AYE; experiment: Broth microdilution MIC; type: cell-based; conditions: Acinetobacter baumannii AYE
[17] = tested on: EMR Staphylococcus aureus 16 NCTC 13277; experiment: Broth microdilution MIC; type: cell-based; conditions: EMR Staphylococcus aureus 16 NCTC 13277
[18] = tested on: C. auris temp probe; experiment: Broth microdilution MIC; type: cell-based, Candida auris; conditions: C. auris temp probe
[19] = tested on: Acinetobacter baumannii ATCC 17978; experiment: Broth microdilution MIC; type: cell-based
[20] = tested on: Klebsiella pneumoniae NCTC 13368; experiment: Broth microdilution MIC; type: cell-based
[21] = tested on: C. krusei 3876; experiment: Broth microdilution MIC; type: cell-based
[22] = tested on: Klebsiella pneumoniae M6; experiment: Broth microdilution MIC; type: cell-based
[23] = tested on: P. aeruginosa RP73; experiment: Checkerboard synergy assay; type: cell-based, Pseudomonas aeruginosa
[24] = tested on: VR Enterococcus faecalis NCTC 12201; experiment: Broth microdilution MIC; type: cell-based; conditions: VR Enterococcus faecalis NCTC 12201
[25] = tested on: Escherichia coli NCTC 12923; experiment: Broth microdilution MIC; type: cell-based
[26] = tested on: C. parapsilosis 3209; experiment: Broth microdilution MIC; type: cell-based
[27] = tested on: M. smegmatis mc^2 155; experiment: Broth microdilution MIC (Middlebrook 7H9); type: cell-based, Mycobacterium smegmatis
[28] = tested on: A. baumannii ATCC 17978; experiment: Fixed-concentration (0.25× MIC bolalipid) synergy broth microdilution; type: cell-based; conditions: Acinetobacter baumannii, ATCC17978, A. baumannii ATCC 17978, read-out: MIC of aminoglycoside
[29] = tested on: A. baumannii AYE; experiment: as above; type: cell-based; conditions: Acinetobacter baumannii
[30] = tested on: K. pneumoniae M6; experiment: as above; type: cell-based; conditions: Klebsiella pneumoniae
[31] = tested on: P. aeruginosa NCTC 13437; experiment: Checkerboard synergy assay; type: cell-based, Pseudomonas aeruginosa
[32] = tested on: Pseudomonas aeruginosa RP73; experiment: In vitro pharmacodynamic (PD) assay; conditions: P. aeruginosa RP73; combination 2:1 (wt/wt)
Method: In vitro PD assays were performed with Pseudomonas aeruginosa RP73 cultured in Roswell Park Memorial Institute 1640 medium (RPMI) supplemented with 5% Mueller-Hinton broth (MHB) ([35]). Bacteria were cultured overnight in 10 mL of RPMI–5% MHB at 37°C and diluted just prior to plate inoculation to an OD600 of 0.002. Stock solutions of colistin or tobramycin were prepared in sterile MilliQ water at a concentration of 200× MIC. Octa-bola was prepared in methanol at 2,000× MIC and diluted in water to 200× MIC. A dilution series was made in the top row of a polypropylene 96-well plate from 200× MIC to 0.2× MIC in a volume of 100 μL, to which 100 μL of the bacterial suspension was added to have a total of 1 × 10^6 log-phase CFU in 200 μL. The first time zero sample was taken <30 s after addition of bacteria to the plate, with further samples taken at appropriate intervals thereafter. […] Fifteen microliters was removed from each well, diluted 1:1,000 in phosphate-buffered saline, and plated onto RPMI–5% MH agar plates. The plates were incubated at 37°C overnight for CFU counting.
CFU data were log10 transformed, and the bacterial net growth rate was determined from the increase or decrease in CFU during the time of exposure to the antibiotics as the coefficient of a linear regression of log10 CFU as a function of time. The intercept of the regression was fixed by forcing the regression lines through the first CFU measurement (0 min) at a given antimicrobial concentration. The pharmacodynamic function according to Regoes et al. ([36]) describes the relationship between bacterial net growth rate (ψ) and the concentration of an antimicrobial (a): ψmax − ([ψmax − ψmin][a/zMIC])^κ/([a/zMIC]^κ − [ψmin/ψmax]). Fitting this function to the net bacterial growth rates in OriginPro 2020 (OriginLab Corporation, Northampton, MA) generates the parameters ψmin and ψmax (minimum and maximum growth rates, respectively), zMIC (the pharmacodynamic MIC), and κ (a measure of the cooperativity). […]

[33] = tested on: Pseudomonas aeruginosa RP73; experiment: Intrahemocoelic G. mellonella infection model; type: in vivo, Galleria mellonella; conditions: 96 h
[34] = tested on: P. aeruginosa PAO1; experiment: Checkerboard synergy assay; type: cell-based, Pseudomonas aeruginosa
[35] = tested on: P. aeruginosa PAO1; experiment: Fixed-concentration (0.25× MIC bolalipid) synergy broth microdilution; type: cell-based, Pseudomonas aeruginosa; conditions: Pseudomonas aeruginosa, PAO1, P. aeruginosa PAO1, read-out: MIC of aminoglycoside
[36] = tested on: K. pneumoniae NCTC 13368; experiment: as above; type: cell-based, Klebsiella pneumoniae; conditions: Klebsiella pneumoniae, NCTC13368, K. pneumoniae NCTC 13368, read-out: MIC of aminoglycoside
[37] = tested on: E. coli NCTC 12923; experiment: as above; type: cell-based; conditions: Escherichia coli, NCTC12923, E. coli NCTC 12923, read-out: MIC of aminoglycoside
[38] = tested on: P. aeruginosa NCTC 13437; experiment: as above; type: cell-based, Pseudomonas aeruginosa; conditions: Pseudomonas aeruginosa, NCTC13437, P. aeruginosa NCTC 13437, read-out: MIC of aminoglycoside
[39] = in the presence of 0.25× MIC Octa-Bola
[40] = in the presence of 0.25× MIC Octa-C6
[41] = in the presence of 0.25× MIC Octa-C10
[42] = No bola, read-out: MIC of aminoglycoside
[43] = in the presence of 0.25× MIC Octa-Bola, read-out: MIC of aminoglycoside
[44] = in the presence of 0.25× MIC Octa-C6, read-out: MIC of aminoglycoside
[45] = in the presence of 0.25× MIC Octa-C10, read-out: MIC of aminoglycoside

With `Nc1c2c([n+](CCCCCC[n+]3c4c(c(N)c5ccccc53)CCCCCC4)c3ccccc13)CCCCCC2` [Octa-C6] the “nanoparticle formation (DLS)” value ([1]; any conditions) was “Under no conditions did Octa-C6 give evidence of nanoparticle formation”, the derived count rate ([1]; concentrations up to 1.65 mM) was ≤ 26.3 kcps and the MIC [2] was >8 µg/mL. The MIC [3] was >32 µg/mL, the MIC [4] was 16 µg/mL and the MIC [5] was 8 µg/mL. The MIC [6] was >8 µg/mL, the MIC [7] was 0.46 µg/mL and the “Toxicity (EC50)” value [8] was 64.3 ± 3.6 µg/mL. For the same compound, the “Toxicity (EC50)” value [9] was 40.0 ± 15.6 µg/mL, the MIC [10] was >32 µg/mL and the MIC [11] was 8 µg/mL. For the same compound, the MIC [12] was 16 µg/mL, the MIC [13] was 8 µg/mL and the protection ([14]; all doses tested) was “did not provide protection”. The survival ([14]; three lower doses (0.01, 0.1, and 1 mg/kg)) was “survival was significantly worse”, the MIC [15] was 32 µg/mL and the MIC [16] was >32 µg/mL. The MIC [17] was 16 µg/mL, the MIC [18] was >8 µg/mL and the MIC [19] was >32 µg/mL. For the same compound, the MIC [20] was >32 µg/mL, the MIC [21] was >8 µg/mL and the MIC [22] was >32 µg/mL. For the same compound, the “MIC alone Bolalipid” value [23] was 64 µg/mL, the MIC [24] was 16 µg/mL and the MIC [25] was >32 µg/mL. For the same compound, the MIC [26] was >8 µg/mL and the MIC [27] was 1.66 µg/mL.

For `NC[C@H]1O[C@H](O[C@H]2[C@H](O)[C@@H](O[C@H]3O[C@H](CO)[C@@H](O)[C@H](N)[C@H]3O)[C@H](N)C[C@@H]2N)[C@H](N)C[C@@H]1O` [Tobramycin], the MIC ([28]; No bola) was 2 µg/mL, the MIC [28, 39] was 0.125 µg/mL and the MIC [28, 40] was 0.5 µg/mL. The MIC [28, 41] was 0.5 µg/mL, the MIC [29, 42] was 64 µg/mL and the MIC [29, 43] was 8 µg/mL. The MIC [29, 44] was 16 µg/mL, the MIC [29, 45] was 4 µg/mL and the MIC [30, 42] was 1 µg/mL. The MIC [30, 43] was 0.5 µg/mL, the MIC [30, 44] was 1 µg/mL and the MIC [30, 45] was 0.25 µg/mL. The “MIC alone Antibiotic” value [31] was 64 µg/mL, the “bactericidal activity (minimum growth rate, ψmin)” value [32] was “weakly bactericidal” and the larvae rescued ([33]; 5 mg/kg) was 37.5%. The larvae rescued ([33]; 50 mg/kg, 1 × 10^2 CFU per larva) was 97.5%, the “MIC alone Antibiotic” value [34] was 0.5 µg/mL and the MIC ([35]; No bola) was 1 µg/mL. For the same compound, the MIC [35, 39] was 0.5 µg/mL, the MIC [35, 40] was 0.5 µg/mL and the MIC [35, 41] was 0.25 µg/mL. It also gave an MIC ([36]; No bola) of 8 µg/mL, an MIC [36, 39] of 4 µg/mL and an MIC [36, 40] of 16 µg/mL. For the same compound, the MIC [36, 41] was 8 µg/mL, the MIC ([37]; No bola) was 2 µg/mL and the MIC [37, 39] was 1 µg/mL. It also gave an MIC [37, 40] of 2 µg/mL, an MIC [37, 41] of 1 µg/mL and an MIC ([38]; No bola) of 64 µg/mL. For the same compound, the MIC [38, 39] was 8 µg/mL, the MIC [38, 40] was 8 µg/mL and the MIC [38, 41] was 4 µg/mL. For the same compound, the “MIC alone Antibiotic” value [23] was 2 µg/mL.

Reference: article PMC9942557, “Bolaamphiphile Analogues of 12-bis-THA Cl2 Are Potent Antimicrobial Therapeutics with Distinct Mechanisms of Action against Bacterial, Mycobacterial, and Fungal Pathogens” (mSphere, 2022)
